Data taken from ChEMBL document CHEMBL1201862, “PubChem BioAssay data set” (2004).
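Step 1: Grow cells in 96-well plates. Step 2: Expose to compound for 48 hours at 5 concentrations. Step 3: Interpolate endpoints linearly; if unreached, use highest concentration. At the GI50, growth is halved.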 Calls of active or inactive are those of the source. Rule as the data show it: active = GI50 up to about 1.1 µM and inactive = higher.

Legend:
Experiment in all cases: inhibition of tumour cell growth, NCI panel, 48 h
SNB-75 = tested on: SNB-75
Malme-3M = tested on: Malme-3M
MDA-MB-231 = tested on: MDA-MB-231
EKVX = tested on: EKVX
COLO 205 = tested on: COLO 205
CAKI-1 = tested on: CAKI-1
HCT-15 = tested on: HCT-15
786-0 = tested on: 786-0
HCC 2998 = tested on: HCC 2998
M14 = tested on: M14
SK-MEL-28 = tested on: SK-MEL-28
OVCAR-5 = tested on: OVCAR-5
K562 = tested on: K562
RPMI-8226 = tested on: RPMI-8226
SF-539 = tested on: SF-539
UACC-257 = tested on: UACC-257
HT-29 = tested on: HT-29
HOP-62 = tested on: HOP-62
Hs-578T = tested on: Hs-578T
BT-549 = tested on: BT-549
SF-295 = tested on: SF-295
SK-MEL-5 = tested on: SK-MEL-5
A498 = tested on: A498
T47D = tested on: T47D
MDA-N = tested on: MDA-N
SW-620 = tested on: SW-620
SNB-19 = tested on: SNB-19
TK-10 = tested on: TK-10
MCF7 = tested on: MCF7
U-251 = tested on: U-251
SN12C = tested on: SN12C
MDA-MB-435 = tested on: MDA-MB-435
SR = tested on: SR
NCI-H23 = tested on: NCI-H23
MOLT-4 = tested on: MOLT-4
OVCAR-8 = tested on: OVCAR-8
A549 = tested on: A549
DU-145 = tested on: DU-145
PC-3 = tested on: PC-3
OVCAR-4 = tested on: OVCAR-4
IGROV-1 = tested on: IGROV-1
NCI-H460 = tested on: NCI-H460
NCI/ADR-RES = tested on: NCI/ADR-RES
HL-60 = tested on: HL-60
KM12 = tested on: KM12
SK-MEL-2 = tested on: SK-MEL-2
NCI-H522 = tested on: NCI-H522
ACHN = tested on: ACHN
HCT-116 = tested on: HCT-116
SK-OV-3 = tested on: SK-OV-3
OVCAR-3 = tested on: OVCAR-3
UACC-62 = tested on: UACC-62
LOX IMVI = tested on: LOX IMVI
SF-268 = tested on: SF-268
RXF 393 = tested on: RXF 393
NCI-H226 = tested on: NCI-H226
CCRF-CEM = tested on: CCRF-CEM
HOP-92 = tested on: HOP-92
UO-31 = tested on: UO-31

SMILES: Cc1cccc2c1c(=O)c1c(O)c3c(cc1n2C)OC(C)(C)C=C3
- GI50 (SNB-75): > 10 µM (inactive)
- GI50 (Malme-3M): > 10 µM (inactive)
- GI50 (MDA-MB-231): > 10 µM (inactive)
- GI50 (EKVX): > 10 µM (inactive)
- GI50 (COLO 205): > 10 µM (inactive)
- GI50 (CAKI-1): > 10 µM (inactive)
- GI50 (HCT-15): > 10 µM
- GI50 (786-0): > 10 µM (inactive)
- GI50 (HCC 2998): > 10 µM (inactive)
- GI50 (M14): > 10 µM (inactive)
- GI50 (SK-MEL-28): > 10 µM (inactive)
- GI50 (OVCAR-5): > 10 µM (inactive)
- GI50 (K562): > 10 µM (inactive)
- GI50 (RPMI-8226): > 10 µM (inactive)
- GI50 (SF-539): > 10 µM (inactive)
- GI50 (UACC-257): > 10 µM (inactive)
- GI50 (HT-29): 3.59 µM (inactive)
- GI50 (HOP-62): > 10 µM (inactive)
- GI50 (Hs-578T): > 10 µM (inactive)
- GI50 (BT-549): > 10 µM (inactive)
- GI50 (SF-295): > 10 µM (inactive)
- GI50 (SK-MEL-5): > 10 µM (inactive)
- GI50 (A498): > 10 µM (inactive)
- GI50 (T47D): > 10 µM (inactive)
- GI50 (MDA-N): > 10 µM (inactive)
- GI50 (SW-620): > 10 µM (inactive)
- GI50 (SNB-19): > 10 µM (inactive)
- GI50 (TK-10): > 10 µM (inactive)
- GI50 (MCF7): 6.15 µM (inactive)
- GI50 (U-251): > 10 µM (inactive)
- GI50 (SN12C): > 10 µM (inactive)
- GI50 (MDA-MB-435): > 10 µM (inactive)
- GI50 (SR): 9.53 µM (inactive)
- GI50 (NCI-H23): > 10 µM (inactive)
- GI50 (MOLT-4): > 10 µM (inactive)
- GI50 (OVCAR-8): > 10 µM (inactive)
- GI50 (A549): > 10 µM (inactive)
- GI50 (DU-145): > 10 µM (inactive)
- GI50 (PC-3): > 10 µM (inactive)
- GI50 (OVCAR-4): > 10 µM (inactive)
- GI50 (IGROV-1): > 10 µM (inactive)
- GI50 (NCI-H460): > 10 µM (inactive)
- GI50 (NCI/ADR-RES): > 10 µM (inactive)
- GI50 (HL-60): > 10 µM (inactive)
- GI50 (KM12): > 10 µM (inactive)
- GI50 (SK-MEL-2): > 10 µM (inactive)
- GI50 (NCI-H522): > 10 µM (inactive)
- GI50 (ACHN): > 10 µM (inactive)
- GI50 (HCT-116): > 10 µM (inactive)
- GI50 (SK-OV-3): > 10 µM (inactive)
- GI50 (OVCAR-3): > 10 µM (inactive)
- GI50 (UACC-62): > 10 µM (inactive)
- GI50 (LOX IMVI): > 10 µM (inactive)
- GI50 (SF-268): > 10 µM (inactive)
- GI50 (RXF 393): > 10 µM (inactive)
- GI50 (NCI-H226): 6.46 µM (inactive)
- GI50 (CCRF-CEM): > 10 µM (inactive)

SMILES: CC#Cc1cc2c(cc1O)CC[C@@H]1[C@@H]2CC[C@]2(C)[C@@H](O)CC[C@@H]12
- GI50 (SNB-75): 1.4 µM (inactive)
- GI50 (Malme-3M): 0.582 µM (active)
- GI50 (MDA-MB-231): 8.18 µM (inactive)
- GI50 (EKVX): 2.49 µM (inactive)
- GI50 (COLO 205): 17.7 µM (inactive)
- GI50 (CAKI-1): 0.766 µM (active)
- GI50 (HCT-15): 0.34 µM
- GI50 (786-0): 1.58 µM (inactive)
- GI50 (HCC 2998): 5.89 µM (inactive)
- GI50 (M14): 0.521 µM (active)
- GI50 (SK-MEL-28): 7.36 µM (inactive)
- GI50 (OVCAR-5): 17.9 µM (inactive)
- GI50 (K562): 0.344 µM (active)
- GI50 (RPMI-8226): 1.61 µM (inactive)
- GI50 (UACC-257): 1.76 µM (inactive)
- GI50 (HT-29): 13.8 µM (inactive)
- GI50 (HOP-62): 1.29 µM (inactive)
- GI50 (Hs-578T): 1.11 µM (active)
- GI50 (BT-549): 11.9 µM (inactive)
- GI50 (SF-295): 0.406 µM (active)
- GI50 (HOP-92): 11.8 µM (inactive)
- GI50 (SK-MEL-5): 0.484 µM (active)
- GI50 (A498): 5.28 µM (inactive)
- GI50 (T47D): 3.15 µM (inactive)
- GI50 (MDA-N): 0.178 µM (active)
- GI50 (SW-620): 0.655 µM (active)
- GI50 (SNB-19): 2.4 µM (inactive)
- GI50 (TK-10): 19.9 µM (inactive)
- GI50 (UO-31): 9.23 µM (inactive)
- GI50 (MCF7): 0.685 µM (active)
- GI50 (U-251): 0.748 µM (active)
- GI50 (SN12C): 6.15 µM (inactive)
- GI50 (MDA-MB-435): 0.134 µM (active)
- GI50 (SR): 0.288 µM (active)
- GI50 (NCI-H23): 1.54 µM (inactive)
- GI50 (MOLT-4): 0.621 µM (active)
- GI50 (OVCAR-8): 2.09 µM (inactive)
- GI50 (A549): 2.01 µM (inactive)
- GI50 (DU-145): 3.43 µM (inactive)
- GI50 (PC-3): 3.92 µM (inactive)
- GI50 (OVCAR-4): 12.8 µM (inactive)
- GI50 (IGROV-1): 4.54 µM (inactive)
- GI50 (NCI-H460): 0.475 µM (active)
- GI50 (NCI/ADR-RES): 0.885 µM (active)
- GI50 (HL-60): 0.311 µM (active)
- GI50 (KM12): 3.08 µM (inactive)
- GI50 (SK-MEL-2): 1.06 µM (active)
- GI50 (NCI-H522): 0.289 µM (active)
- GI50 (ACHN): 6.17 µM (inactive)
- GI50 (SK-OV-3): 1.81 µM (inactive)
- GI50 (LOX IMVI): 0.94 µM (active)
- GI50 (SF-268): 3.59 µM (inactive)
- GI50 (RXF 393): 2.45 µM (inactive)
- GI50 (NCI-H226): 2.8 µM (inactive)
- GI50 (CCRF-CEM): 0.684 µM (active)

SMILES: CCc1cccc(C(C)C)c1NC(=O)C(=O)C1C(=O)Nc2ccccc2[S+]1[O-] (centres undefined)
- GI50 (SNB-75): > 100 µM (inactive)
- GI50 (Malme-3M): > 100 µM (inactive)
- GI50 (MDA-MB-231): > 100 µM (inactive)
- GI50 (EKVX): 57.8 µM (inactive)
- GI50 (COLO 205): > 100 µM (inactive)
- GI50 (CAKI-1): > 100 µM (inactive)
- GI50 (HCT-15): > 100 µM
- GI50 (786-0): > 100 µM (inactive)
- GI50 (HCC 2998): > 100 µM (inactive)
- GI50 (M14): > 100 µM (inactive)
- GI50 (SK-MEL-28): > 100 µM (inactive)
- GI50 (OVCAR-5): > 100 µM (inactive)
- GI50 (RPMI-8226): > 100 µM (inactive)
- GI50 (SF-539): > 100 µM (inactive)
- GI50 (UACC-257): > 100 µM (inactive)
- GI50 (HT-29): > 100 µM (inactive)
- GI50 (HOP-62): > 100 µM (inactive)
- GI50 (Hs-578T): > 100 µM (inactive)
- GI50 (BT-549): > 100 µM (inactive)
- GI50 (SF-295): > 100 µM (inactive)
- GI50 (HOP-92): > 100 µM (inactive)
- GI50 (SK-MEL-5): > 100 µM (inactive)
- GI50 (A498): > 100 µM (inactive)
- GI50 (T47D): > 100 µM (inactive)
- GI50 (MDA-N): > 100 µM (inactive)
- GI50 (SW-620): > 100 µM (inactive)
- GI50 (SNB-19): > 100 µM (inactive)
- GI50 (TK-10): > 100 µM (inactive)
- GI50 (UO-31): > 100 µM (inactive)
- GI50 (MCF7): > 100 µM (inactive)
- GI50 (U-251): > 100 µM (inactive)
- GI50 (SN12C): > 100 µM (inactive)
- GI50 (MDA-MB-435): > 100 µM (inactive)
- GI50 (SR): > 100 µM (inactive)
- GI50 (NCI-H23): > 100 µM (inactive)
- GI50 (MOLT-4): > 100 µM (inactive)
- GI50 (OVCAR-8): > 100 µM (inactive)
- GI50 (A549): > 100 µM (inactive)
- GI50 (DU-145): > 100 µM (inactive)
- GI50 (PC-3): > 100 µM (inactive)
- GI50 (OVCAR-4): > 100 µM (inactive)
- GI50 (IGROV-1): 38.9 µM (inactive)
- GI50 (NCI-H460): > 100 µM (inactive)
- GI50 (NCI/ADR-RES): > 100 µM (inactive)
- GI50 (KM12): > 100 µM (inactive)
- GI50 (SK-MEL-2): > 100 µM (inactive)
- GI50 (NCI-H522): > 100 µM (inactive)
- GI50 (ACHN): > 100 µM (inactive)
- GI50 (HCT-116): > 100 µM (inactive)
- GI50 (SK-OV-3): > 100 µM (inactive)
- GI50 (OVCAR-3): > 100 µM (inactive)
- GI50 (UACC-62): > 100 µM (inactive)
- GI50 (LOX IMVI): > 100 µM (inactive)
- GI50 (SF-268): > 100 µM (inactive)
- GI50 (RXF 393): 56.1 µM (inactive)
- GI50 (NCI-H226): > 100 µM (inactive)
- GI50 (CCRF-CEM): > 100 µM (inactive)
